# According to publication PMC10408569, “Recruitment of hexahydroquinoline as anticancer scaffold targeting inhibition of wild and mutants EGFR (EGFR^WT, EGFR^T790M, and EGFR^L858R)” (Journal of Enzyme Inhibition and Medicinal Chemistry, 2023):
# Legend:
# HOP-92 = assay: NCI-60 anticancer screening (SRB); format: cell-based; settings: Homo sapiens; HOP-92, NSC lung cancer; one dose 10 μM; read-out: Growth Inhibition Percentage (GI %)
# DU-145 = assay: NCI-60 anticancer screening (SRB); format: cell-based; settings: Homo sapiens; DU-145, prostate cancer; one dose 10 μM; read-out: Growth Inhibition Percentage (GI %)
# MDA-MB-468 = assay: NCI-60 anticancer screening (SRB); format: cell-based; settings: Homo sapiens; MDA-MB-468, breast cancer; one dose 10 μM; read-out: Growth Inhibition Percentage (GI %)
# SF-268 = assay: NCI-60 anticancer screening (SRB); format: cell-based; settings: Homo sapiens; SF-268, CNS cancer; one dose 10 μM; read-out: Growth Inhibition Percentage (GI %)
# MALME-3M = assay: NCI-60 anticancer screening (SRB); format: cell-based; settings: Homo sapiens, melanoma, one dose 10 μM, read-out: Growth Inhibition Percentage (GI %)
# ACHN = assay: NCI-60 anticancer screening (SRB); format: cell-based; settings: Homo sapiens, renal cancer, one dose 10 μM, read-out: Growth Inhibition Percentage (GI %)
# EGFR^WT = EGFR^WT (Homo sapiens, UniProt P00533); assay: EGFR kinase inhibitory assay (HTRF)
# EGFR^WT, sequence (P00533 25-1210): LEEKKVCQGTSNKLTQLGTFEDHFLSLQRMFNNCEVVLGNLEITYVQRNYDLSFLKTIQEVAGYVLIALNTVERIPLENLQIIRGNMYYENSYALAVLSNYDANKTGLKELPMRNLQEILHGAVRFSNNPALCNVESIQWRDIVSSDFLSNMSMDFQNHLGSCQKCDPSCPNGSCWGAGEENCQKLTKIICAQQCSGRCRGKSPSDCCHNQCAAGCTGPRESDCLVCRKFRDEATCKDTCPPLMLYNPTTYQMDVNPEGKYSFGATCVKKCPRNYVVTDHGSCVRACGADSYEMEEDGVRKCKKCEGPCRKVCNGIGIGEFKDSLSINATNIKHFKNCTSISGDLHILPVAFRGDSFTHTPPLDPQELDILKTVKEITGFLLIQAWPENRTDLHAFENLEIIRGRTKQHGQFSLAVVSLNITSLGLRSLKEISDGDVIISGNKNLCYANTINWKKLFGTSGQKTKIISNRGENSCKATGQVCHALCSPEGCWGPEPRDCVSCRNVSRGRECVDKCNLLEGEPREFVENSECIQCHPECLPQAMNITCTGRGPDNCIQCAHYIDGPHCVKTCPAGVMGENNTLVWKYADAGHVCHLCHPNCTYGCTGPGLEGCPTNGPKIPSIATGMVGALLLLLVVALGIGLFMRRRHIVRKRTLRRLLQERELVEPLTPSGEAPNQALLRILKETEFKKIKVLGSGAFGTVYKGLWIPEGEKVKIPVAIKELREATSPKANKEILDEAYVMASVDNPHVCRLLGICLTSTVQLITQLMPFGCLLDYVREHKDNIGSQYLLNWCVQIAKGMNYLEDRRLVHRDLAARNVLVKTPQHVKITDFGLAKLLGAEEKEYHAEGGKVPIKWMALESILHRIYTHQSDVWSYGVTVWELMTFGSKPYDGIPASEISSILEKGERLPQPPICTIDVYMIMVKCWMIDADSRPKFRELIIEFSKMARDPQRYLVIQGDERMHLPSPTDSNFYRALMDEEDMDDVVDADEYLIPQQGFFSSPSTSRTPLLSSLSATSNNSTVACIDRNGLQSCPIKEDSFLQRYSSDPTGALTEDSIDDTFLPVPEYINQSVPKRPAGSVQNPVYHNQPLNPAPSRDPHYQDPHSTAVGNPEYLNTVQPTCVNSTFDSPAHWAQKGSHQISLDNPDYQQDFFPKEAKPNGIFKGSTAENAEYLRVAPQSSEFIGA
# SF-539 = assay: NCI-60 anticancer screening (SRB); format: cell-based; settings: Homo sapiens; SF-539, CNS cancer; one dose 10 μM; read-out: Growth Inhibition Percentage (GI %)
# HCT-15 = assay: NCI-60 anticancer screening (SRB); format: cell-based; settings: Homo sapiens; HCT-15, colon cancer; one dose 10 μM; read-out: Growth Inhibition Percentage (GI %)
# MDA-MB-435 = assay: NCI-60 anticancer screening (SRB); format: cell-based; settings: Homo sapiens; MDA-MB-435, melanoma; one dose 10 μM; read-out: Growth Inhibition Percentage (GI %)
# SK-OV-3 = assay: NCI-60 anticancer screening (SRB); format: cell-based; settings: Homo sapiens; SK-OV-3, ovarian cancer; one dose 10 μM; read-out: Growth Inhibition Percentage (GI %)
# CCRF-CEM = assay: NCI-60 anticancer screening (SRB); format: cell-based; settings: Homo sapiens, leukemia, one dose 10 μM, read-out: Growth Inhibition Percentage (GI %)
# OVCAR-8 = assay: NCI-60 anticancer screening (SRB); format: cell-based; settings: Homo sapiens; OVCAR-8, ovarian cancer; one dose 10 μM; read-out: Growth Inhibition Percentage (GI %)
# EGFR^T790M = EGFR^T790M (Homo sapiens, UniProt P00533, T790M); assay: biochemical
# EGFR^T790M, sequence (P00533 25-1210 T790M): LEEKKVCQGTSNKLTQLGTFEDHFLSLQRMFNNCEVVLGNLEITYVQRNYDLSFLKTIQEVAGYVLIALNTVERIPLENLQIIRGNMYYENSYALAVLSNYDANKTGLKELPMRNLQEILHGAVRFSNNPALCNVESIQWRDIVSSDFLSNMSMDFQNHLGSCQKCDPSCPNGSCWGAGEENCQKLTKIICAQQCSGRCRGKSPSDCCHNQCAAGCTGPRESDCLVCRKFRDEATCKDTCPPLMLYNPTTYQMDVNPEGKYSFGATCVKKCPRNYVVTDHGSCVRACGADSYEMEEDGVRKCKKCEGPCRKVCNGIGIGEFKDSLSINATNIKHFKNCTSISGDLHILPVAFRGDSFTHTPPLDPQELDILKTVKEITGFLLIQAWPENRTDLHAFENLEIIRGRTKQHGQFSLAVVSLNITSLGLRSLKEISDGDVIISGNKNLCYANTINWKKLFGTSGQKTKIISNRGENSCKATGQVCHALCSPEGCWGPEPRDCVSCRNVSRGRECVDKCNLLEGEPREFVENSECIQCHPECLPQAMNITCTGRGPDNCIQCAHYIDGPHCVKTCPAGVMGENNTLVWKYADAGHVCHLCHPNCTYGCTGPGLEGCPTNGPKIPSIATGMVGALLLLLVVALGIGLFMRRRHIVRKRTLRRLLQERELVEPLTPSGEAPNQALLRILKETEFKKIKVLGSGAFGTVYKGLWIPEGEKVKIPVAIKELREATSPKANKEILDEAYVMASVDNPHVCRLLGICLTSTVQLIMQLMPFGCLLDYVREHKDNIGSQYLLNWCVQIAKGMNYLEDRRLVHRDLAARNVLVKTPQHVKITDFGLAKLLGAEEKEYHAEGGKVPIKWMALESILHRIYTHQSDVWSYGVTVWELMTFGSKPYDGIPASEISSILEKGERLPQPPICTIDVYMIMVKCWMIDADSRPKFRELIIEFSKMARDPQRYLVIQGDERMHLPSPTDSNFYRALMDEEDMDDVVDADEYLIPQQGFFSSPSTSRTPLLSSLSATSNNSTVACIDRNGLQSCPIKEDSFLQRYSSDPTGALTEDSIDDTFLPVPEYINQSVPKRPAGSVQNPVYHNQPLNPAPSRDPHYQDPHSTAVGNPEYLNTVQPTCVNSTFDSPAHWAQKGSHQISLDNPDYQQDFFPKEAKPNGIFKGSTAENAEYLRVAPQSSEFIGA
# EGFR^L858R = EGFR^L858R (Homo sapiens, UniProt P00533, L858R); assay: biochemical
# EGFR^L858R, sequence (P00533 25-1210 L858R): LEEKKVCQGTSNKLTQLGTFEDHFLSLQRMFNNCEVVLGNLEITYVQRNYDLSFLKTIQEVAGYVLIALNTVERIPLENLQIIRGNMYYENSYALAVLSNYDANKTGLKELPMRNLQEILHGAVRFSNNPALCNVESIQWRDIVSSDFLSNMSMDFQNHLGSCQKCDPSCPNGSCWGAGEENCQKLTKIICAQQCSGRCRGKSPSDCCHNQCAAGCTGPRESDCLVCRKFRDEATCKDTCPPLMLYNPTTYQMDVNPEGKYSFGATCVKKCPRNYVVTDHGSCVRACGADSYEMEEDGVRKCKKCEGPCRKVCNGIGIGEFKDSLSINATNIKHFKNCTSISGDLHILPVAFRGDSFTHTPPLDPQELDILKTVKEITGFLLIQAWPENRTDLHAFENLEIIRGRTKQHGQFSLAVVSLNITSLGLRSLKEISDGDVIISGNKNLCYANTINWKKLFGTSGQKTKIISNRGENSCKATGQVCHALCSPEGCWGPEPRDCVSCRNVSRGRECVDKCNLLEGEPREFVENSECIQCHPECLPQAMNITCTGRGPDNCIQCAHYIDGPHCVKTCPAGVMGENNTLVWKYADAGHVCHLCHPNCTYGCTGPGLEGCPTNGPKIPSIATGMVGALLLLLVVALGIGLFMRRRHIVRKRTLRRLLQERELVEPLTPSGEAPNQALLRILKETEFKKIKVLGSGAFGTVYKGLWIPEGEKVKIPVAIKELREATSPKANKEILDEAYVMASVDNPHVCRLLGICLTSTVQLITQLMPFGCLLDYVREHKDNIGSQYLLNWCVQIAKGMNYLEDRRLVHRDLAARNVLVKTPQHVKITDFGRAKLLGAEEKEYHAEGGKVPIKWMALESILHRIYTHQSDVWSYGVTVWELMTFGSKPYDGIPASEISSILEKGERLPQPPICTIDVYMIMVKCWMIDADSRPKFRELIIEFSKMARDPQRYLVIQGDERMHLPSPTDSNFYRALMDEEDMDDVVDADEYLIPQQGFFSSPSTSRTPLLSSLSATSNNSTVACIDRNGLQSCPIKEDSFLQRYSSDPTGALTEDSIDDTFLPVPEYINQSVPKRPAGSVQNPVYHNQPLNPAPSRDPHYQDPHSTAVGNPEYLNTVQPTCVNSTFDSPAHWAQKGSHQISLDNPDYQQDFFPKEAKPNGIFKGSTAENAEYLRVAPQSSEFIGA
# PC-3 = assay: NCI-60 anticancer screening (SRB); format: cell-based; settings: Homo sapiens; PC-3, prostate cancer; one dose 10 μM; read-out: Growth Inhibition Percentage (GI %)
# OVCAR-5 = assay: NCI-60 anticancer screening (SRB); format: cell-based; settings: Homo sapiens; OVCAR-5, ovarian cancer; one dose 10 μM; read-out: Growth Inhibition Percentage (GI %)
# IGROV1 = assay: NCI-60 anticancer screening (SRB); format: cell-based; settings: Homo sapiens, IGROV-1; IGROV1, ovarian cancer; one dose 10 μM; read-out: Growth Inhibition Percentage (GI %)
# U251 = assay: NCI-60 anticancer screening (SRB); format: cell-based; settings: Homo sapiens, U-251; U251, CNS cancer; one dose 10 μM; read-out: Growth Inhibition Percentage (GI %)
# RPMI-8226 = assay: NCI-60 anticancer screening (SRB); format: cell-based; settings: Homo sapiens; RPMI-8226, leukemia; one dose 10 μM; read-out: Growth Inhibition Percentage (GI %)
# SK-MEL-28 = assay: NCI-60 anticancer screening (SRB); format: cell-based; settings: Homo sapiens; SK-MEL-28, melanoma; one dose 10 μM; read-out: Growth Inhibition Percentage (GI %)
# A549/ATCC = assay: NCI-60 anticancer screening (SRB); format: cell-based; settings: Homo sapiens; A549/ATCC, NSC lung cancer; one dose 10 μM; read-out: Growth Inhibition Percentage (GI %)
# K-562 = assay: NCI-60 anticancer screening (SRB); format: cell-based; settings: Homo sapiens, K562; K-562, leukemia; one dose 10 μM; read-out: Growth Inhibition Percentage (GI %)
# SNB-75 = assay: NCI-60 anticancer screening (SRB); format: cell-based; settings: Homo sapiens; SNB-75, CNS cancer; one dose 10 μM; read-out: Growth Inhibition Percentage (GI %)
# SF-295 = assay: NCI-60 anticancer screening (SRB); format: cell-based; settings: Homo sapiens; SF-295, CNS cancer; one dose 10 μM; read-out: Growth Inhibition Percentage (GI %)
# HCT-116 = assay: NCI-60 anticancer screening (SRB); format: cell-based; settings: Homo sapiens; HCT-116, colon cancer; one dose 10 μM; read-out: Growth Inhibition Percentage (GI %)
# UACC-257 = assay: NCI-60 anticancer screening (SRB); format: cell-based; settings: Homo sapiens; UACC-257, melanoma; one dose 10 μM; read-out: Growth Inhibition Percentage (GI %)
# NCI-H226 = assay: NCI-60 anticancer screening (SRB); format: cell-based; settings: Homo sapiens; NCI-H226, NSC lung cancer; one dose 10 μM; read-out: Growth Inhibition Percentage (GI %)
# SNB-19 = assay: NCI-60 anticancer screening (SRB); format: cell-based; settings: Homo sapiens; SNB-19, CNS cancer; one dose 10 μM; read-out: Growth Inhibition Percentage (GI %)
# SR = assay: NCI-60 anticancer screening (SRB); format: cell-based; settings: Homo sapiens, leukemia, one dose 10 μM, read-out: Growth Inhibition Percentage (GI %)
# EKVX = assay: NCI-60 anticancer screening (SRB); format: cell-based; settings: Homo sapiens, NSC lung cancer, one dose 10 μM, read-out: Growth Inhibition Percentage (GI %)
SMILES,inhibition at 10 µM (HOP-92),inhibition at 10 µM (DU-145),inhibition at 10 µM (MDA-MB-468),inhibition at 10 µM (SF-268),inhibition at 10 µM (MALME-3M),inhibition at 10 µM (ACHN),inhibition at 10 µM (SF-539),inhibition at 10 µM (HCT-15),inhibition at 10 µM (MDA-MB-435),inhibition at 10 µM (SK-OV-3),inhibition at 10 µM (CCRF-CEM),inhibition at 10 µM (OVCAR-8),inhibition at 10 µM (PC-3),inhibition at 10 µM (OVCAR-5),inhibition at 10 µM (IGROV1),inhibition at 10 µM (U251),inhibition at 10 µM (RPMI-8226),inhibition at 10 µM (SK-MEL-28),inhibition at 10 µM (A549/ATCC),inhibition at 10 µM (K-562),other results
"CCOC(=O)C1=C(N)N(c2ccc(C)cc2)C2=C(C(=O)CC(C)(C)C2)C1c1ccccc1Br (racemic) [6e, (±)-Ethyl 2-amino-4–(2-bromophenyl)-7,7-dimethyl-1–(4-methylphenyl)-5-oxo-1,4,5,6,7,8-hexahydroquinoline-3-carboxylate]",28%,< 10%,23%,< 10%,< 10%,14%,< 10%,42%,17%,< 10%,60%,< 10%,68%,< 10%,< 10%,19%,64%,< 10%,19%,50%,IC50 (EGFR^WT): 0.176 ± 0.07 µM; IC50 (EGFR^T790M): 0.48 ± 0.003 µM; IC50 (EGFR^L858R): 0.37 ± 0.004 µM; inhibition at 10 µM (SNB-75): 13%; inhibition at 10 µM (SF-295): < 10%; inhibition at 10 µM (HCT-116): 60%; inhibition at 10 µM (UACC-257): 16%; inhibition at 10 µM (NCI-H226): 15%; inhibition at 10 µM (SNB-19): 13%; inhibition at 10 µM (SR): 34%; inhibition at 10 µM (EKVX): < 10%
"CCOC(=O)C1=C(N)N(c2ccc(Cl)cc2)C2=C(C(=O)CC(C)(C)C2)C1c1ccc(N2CCOCC2)cc1 (racemic) [8m, (±)-Ethyl 2-amino-1–(4-chlorophenyl)-7,7-dimethyl-4-[4-(morpholin-4-yl)phenyl]-5-oxo-1,4,5,6,7,8-hexahydroquinoline-3-carboxylate]",< 10%,< 10%,16%,< 10%,< 10%,< 10%,< 10%,< 10%,< 10%,< 10%,< 10%,< 10%,< 10%,< 10%,< 10%,12%,< 10%,< 10%,< 10%,< 10%,inhibition at 10 µM (SNB-75): < 10%; inhibition at 10 µM (SF-295): 11%; inhibition at 10 µM (HCT-116): < 10%; inhibition at 10 µM (UACC-257): < 10%; inhibition at 10 µM (NCI-H226): < 10%; inhibition at 10 µM (SNB-19): < 10%; inhibition at 10 µM (SR): < 10%; inhibition at 10 µM (EKVX): 25%
